Measurements from PubChem BioAssay (NCI).
“And” between values parts separate entries of the source, which are not always exact repeats. Identical values can stand only once.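 Values below derive from 48-hour exposures of cells grown in 96-well plates, with endpoints linearly interpolated between the two concentrations bracketing the appropriate inhibition level. The concentration for 50% growth inhibition is given as GI50. TGI: concentration producing complete growth inhibition.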

Legend:
Experiment in all cases: growth of human tumour cells (NCI), 48 h
[1] = tested on: NCI-H23 lung
[2] = tested on: SNB-19 CNS
[3] = tested on: OVCAR-5 ovarian
[4] = tested on: SF-295 CNS
[5] = tested on: UO-31 renal
[6] = tested on: NCI-H522 lung
[7] = tested on: MDA-N
[8] = tested on: UACC-257 melanoma
[9] = tested on: PC-3 prostate
[10] = tested on: SK-MEL-2 melanoma

| SMILES | TGI [1] | TGI [2] | TGI [3] | TGI [4] | TGI [5] | TGI [6] | TGI [7] | TGI [8] | TGI [9] | TGI [10] | GI50 [3] | GI50 [5] | GI50 [6] | GI50 [10] | GI50 [1] | GI50 [2] | GI50 [4] | GI50 [9] |
| --- | --- | --- | --- | --- | --- | --- | --- | --- | --- | --- | --- | --- | --- | --- | --- | --- | --- | --- |
| COc1cc(C2c3cc4c(cc3OC(NNc3ccccc3)C2C)OCO4)cc(OC)c1O (configuration not stated) | 29.4 µM | 32.5 µM | 18 µM | 11.3 µM | 13.3 µM | 12.1 µM | 2.75 µM | 20 µM | 14.9 µM | 6.35 µM |  |  |  |  |  |  |  |  |
| NCCN(CCN)/[N+]([O-])=N/O | > 100 µM | > 100 µM | > 100 µM | > 100 µM | > 100 µM | > 100 µM | > 100 µM | > 100 µM | > 100 µM | > 100 µM |  |  |  |  |  |  |  |  |
| Cc1csc2c(=O)n(COCc3ccccc3)c(=O)[nH]c12 | > 100 µM | > 100 µM | > 100 µM | > 100 µM | > 100 µM | > 100 µM | > 100 µM | > 100 µM | > 100 µM |  |  |  |  |  |  |  |  |  |
| NC(CS)C(=O)NCCNc1ccc(NCCNC(=O)C(N)CS)c2c1C(=O)c1c(O)ccc(O)c1C2=O (configuration not stated) | 0.0636 µM and 0.0484 µM | 1.11 µM and 1.21 µM | 1.58 µM and 0.718 µM | 0.276 µM and 0.0386 µM | 0.477 µM and 0.316 µM | 0.421 µM and 0.127 µM | 1.68 µM | 2.41 µM and 2.29 µM | 1.13 µM | 1.38 µM and 0.87 µM | 0.0756 µM | 0.0598 µM | 0.0165 µM | 0.227 µM |  |  |  |  |
| O=[N+]([O-])c1ccc2c(N=Nc3ccc4ccccc4c3O)c(O)cc(S(=O)(=O)O)c2c1 | > 93.4 µM | > 83.2 µM | > 100 µM | > 85.7 µM | 47.4 µM | > 57.3 µM |  | > 100 µM | > 100 µM | > 100 µM |  |  |  |  |  |  |  |  |
| C[C@]12CCC(=O)C=C1CC[C@@H]1C2CC[C@@]2(C)C1CC[C@@H]2OC(=O)C12OC1CCC2=O (some centres not stated) | 33.6 µM | 44.3 µM | 33.9 µM | 34.7 µM | 30.3 µM | 23.1 µM |  | 35.9 µM |  | 29.8 µM |  |  |  |  |  |  |  |  |
| CC(=O)CC12NC(=O)N(C)N=C1N(C)C(=O)N(C)C2=O (configuration not stated) | > 100 µM |  | > 100 µM | > 100 µM | > 100 µM | > 100 µM | 43.3 µM | 40.4 µM | > 100 µM |  |  |  |  |  |  |  |  |  |
| Cc1cc(=O)[nH]c(NNC(C#N)c2ccc(N(C)C)cc2)n1 (configuration not stated) | > 100 µM |  | > 100 µM | > 100 µM | > 100 µM | > 100 µM |  | > 100 µM |  | > 100 µM |  |  |  |  |  |  |  |  |
| N#Cc1c(O)c(C=O)c(=O)n2c1[nH]c1ccccc12 | > 100 µM | > 100 µM | > 100 µM | > 100 µM | > 100 µM | > 100 µM | > 100 µM | > 100 µM | > 100 µM |  |  |  |  |  |  |  |  |  |
| CNC(=O)c1cc(Oc2cccc3nc(NC(=O)Nc4ccc(F)cc4F)ccc23)ccn1 | > 50 µM |  |  |  |  |  |  |  |  | > 50 µM |  |  |  | > 50 µM | 2.4 µM |  |  |  |
| Nc1ccn(CCCC(c2ccccc2)P(=O)(O)O)c(=O)n1 (configuration not stated) | > 100 µM | > 100 µM | > 100 µM | > 100 µM | > 100 µM | > 100 µM |  | > 100 µM |  | > 100 µM |  |  |  |  |  |  |  |  |
| COCC1N=C(c2cc(OC)c(OC)c(OC)c2-c2cc3c(cc2[C@@H](C)O)OCO3)O[C@H]1c1ccccc1 (some centres not stated) | > 100 µM | > 100 µM | > 100 µM | > 100 µM | > 100 µM | > 100 µM |  | > 100 µM |  | > 87.7 µM |  |  |  |  |  |  |  |  |
| O=C1[C@H](O)[C@@H]2CCC[C@@]23CCCN13 | > 100 µM |  | > 100 µM | > 100 µM | > 100 µM | > 100 µM | > 100 µM | > 100 µM |  |  |  |  |  |  |  |  |  |  |
| COc1cc(O)c2c(=O)c(OC)c(-c3ccc(OC)c(OC)c3)oc2c1.[Sn] |  | > 100 µM | > 100 µM | > 100 µM | > 100 µM | > 100 µM | > 100 µM |  | > 100 µM |  | > 100 µM |  |  |  |  | > 100 µM | 17.4 µM | 68.5 µM |
| COc1ccc2nc3c([N+](=O)[O-])ccc(NCCCN(C)C)c3c(N)c2c1 | 3.95 µM | 4.23 µM | 2.75 µM | 2.95 µM | 3.71 µM | 1.34 µM | 3.47 µM |  | 2.73 µM | 4.78 µM |  |  |  |  |  |  |  |  |
| CON(C(=O)OC(C)(C)C)c1ccccc1 | > 100 µM | > 100 µM | > 100 µM | > 100 µM | > 100 µM | > 100 µM |  | > 100 µM | > 100 µM | > 100 µM |  |  |  |  |  |  |  |  |
| COc1cc(/C=C/C2=NN(c3cccc(S(=O)(=O)O)c3)C3(C2)SCC(=O)N3c2nc3ccccc3s2)cc(OC)c1OC (configuration not stated) | > 100 µM | > 100 µM | > 100 µM |  | > 100 µM | 38.4 µM | > 100 µM | > 100 µM | > 100 µM | > 100 µM |  |  |  |  |  |  |  |  |
| CC(C)(/C=N/O)/[N+]([O-])=C/c1ccccc1 | > 100 µM | > 100 µM | > 100 µM | > 100 µM | > 100 µM |  | > 100 µM | > 100 µM | > 100 µM | > 100 µM |  |  |  |  |  |  |  |  |
| CC(C)(CO)NC(=O)c1cccs1 | > 100 µM | > 100 µM | > 100 µM | > 100 µM | > 100 µM | > 100 µM |  | > 100 µM | > 100 µM | > 100 µM |  |  |  |  |  |  |  |  |
| O=C(NCCC1CN(S(=O)(=O)C(F)(F)F)c2ccccc21)OCc1ccccc1 (configuration not stated) | > 100 µM | > 100 µM | > 100 µM | > 100 µM | > 100 µM | > 100 µM |  | > 100 µM | > 100 µM | > 100 µM |  |  |  |  |  |  |  |  |
| O=c1cc(NNc2cccc(F)c2)[nH]c(=S)[nH]1 |  | > 100 µM | > 100 µM | > 100 µM | > 100 µM |  | > 100 µM | > 100 µM | > 100 µM |  |  |  |  |  |  |  |  |  |
| CN(C)CCNC(=O)c1cccc2[nH]c(-c3ccc(Cl)cc3)nc12 | 21.5 µM | 31.5 µM | 26.4 µM | 21.3 µM | 12.1 µM | 19.9 µM |  | 20.4 µM |  | 26.5 µM |  |  |  |  |  |  |  |  |
| CC(=O)Nc1ccc(C(=O)n2[nH]c(C)c(/C=C3\C(=O)C=Cc4ccccc43)c2=O)cc1 | > 100 µM | > 100 µM | > 100 µM | > 100 µM | > 100 µM | > 100 µM |  | > 100 µM |  | 95.3 µM |  |  |  |  |  |  |  |  |
| Cc1sc2nc3n(c(=O)c2c1C)N=C(c1ccccc1)CS3 | > 100 µM |  | > 100 µM | > 100 µM | > 100 µM | > 100 µM | > 100 µM | > 100 µM | > 100 µM |  |  |  |  |  |  |  |  |  |
